{
  "source": "patent US20260325655A1",
  "about": "“DECREASING THE INTRINSICALLY DISORDERED PROTEIN ALPHA-SYNUCLEIN’S LEVELS BY TARGETING ITS STRUCTURED MRNA WITH A RIBONUCLEASE TARGETING CHIMERA” (University of Florida Research Foundation, Incorporated, priority 2023, published 2026)",
  "type_in_all_cases": "cell-based, human",
  "key": {"[1]": {"system": "SNCA IRE-luciferase transcript", "test": "SNCA IRE-luciferase transcript abundance by RT-qPCR", "details": "Homo sapiens, 2 μM, read-out: reduction of SNCA IRE-luciferase transcript levels", "description": "RNA extraction and reverse transcription-quantitative polymerase chain reaction (RT-qPCR). Total RNA was extracted from cells using a Quick-RNA MiniPrep Kit (Zymo Research) per the manufacturer's protocol including DNase treatment. For each sample, 200 ng of RNA was reverse transcribed into cDNA by using a qScript cDNA Synthesis Kit (QuantaBio) according to the manufacturer's instructions. To assess the relative mRNA levels, RT-qPCR was performed in triplicate using SYBR Green PCR mater mix (Applied Biosystems) with a Quant Studio 5 Real-Time PCR system. The relative levels of mRNA were calculated by using the ΔΔCt method as previously described.^8\nPlasmid constructs and establishment of reporter gene overexpressing cells. Construction of pIRES-Luc-EGFP-puro plasmid and pCDH-α-syn-5′-UTR-Luc-EGFP-puro plasmid used in 5′ UTR-luciferase-based selectivity assay were previously described.^4 Briefly, In-Fusion PCR cloning system (Takara Bio, Mountain View, CA, USA) was used for all plasmid constructions per the manufacturer's instructions. To ensure sequence accuracy, all plasmids generated in this study were confirmed by sequencing."}, "SH-SY5Y cells": {"system": "SH-SY5Y cells", "test": "cytoprotection of SH-SY5Y cells against α-synuclein pre-formed fibrils (PFF), LDH assay", "details": "Syn-RIBOTAC vs Synucleozid 2.0", "description": "Lactate Dehydrogenase (LDH) assay. SH-SY5Y cells in 96-well plates (~60% confluency) were pre-treated with compounds in growth medium for 24 h, followed by addition of 50 ng/μL of human α-synuclein pre-formed fibrils (PFFs, SPR-322 from Eagle Biosciences). The cells were then incubated for an additional 48 h. Cell viability was measured using LDH (Lactate Dehydrogenase) Cytotoxicity Detection Kit (MK401; Takara) according to the manufacturer's instructions."}, "[2]": {"system": "PD patient-derived neurons", "test": "total RNA-seq in PD patient-derived dopaminergic neurons", "description": "RNA-seq analysis. Total RNA was quantified using the Qubit 2.0 Fluorometer (Invitrogen) and an Agilent 2100 Bioanalyzer RNA nano chip. Samples with RIN>9.0 were proceeded to library preparation using NEBNext Ultra II Directional RNA Kit (Cat. #E7760, NEB) following manufacture's protocol. Briefly, 200 ng of total RNA was depleted of ribosomal RNA using the NEBNext rRNA Depletion Module. The product was chemically fragmented using NEBNext Magnesium RNA Fragmentation Module (E6150S, NEB) the at 94° C. for 15 min. First-strand synthesis was performed with random primers, and second strand was synthesized with dUTP in place of dTTP. After end repair and 3′ adenylation, the cDNA was ligated with adaptors and then treated with USER enzyme (Uracil-specific excision reagent). The product was PCR amplified with Illumina-barcoded primers to generate the cDNA libraries. The final libraries were analyzed on the bioanalyzer DNA chips, pooled in equimolar ratios, and loaded onto the NextSeq 500 v2.5 flow cell and sequenced with 2×40 bp paired-end chemistry. The raw data were aligned to the human genome using STAR.^11 Read counts were extracted using featureCounts,^12 and the differential gene analysis was performed using Deseq2.^13\nDopamine neuron induction. For dopamine neuronal induction,^15,16 the dual-SMAD inhibition method^17 was used for floor plate (FP)-based midbrain dopamine (DA) neuron induction with modifications. Prior to differentiation, Matrigel matrix (BD) was thawed at 4° C. overnight or on ice until it is dissolved. Matrigel coated 6-well plates were prepared according to manufacturer's instructions and incubated at 37° C. for at least 1 h before use. iPSCs were dissociated with Accutase (STEMCELL Technologies) and plated (3.5×10^5-4×10^5 cells per cm^2) into a new Matrigel coated plate and grown in mTeSR medium (STEMCELL Technologies) with StemBeads FGF2 (StemCultures) and ROCK inhibitor Y27632 (5 μM, Tocris). After 24 to 48 h, when the cells reached 100% confluency, the differentiation protocol was initiated by feeding the cells with DMEM containing 15% KnockOut Serum Replacement (KSR, Gibco), 2 mM L-glutamine (L-Glut) and 10 μM β-mercaptoethanol for 11 days.\nFloor Plate (FP) induction protocol was followed based on timed exposure to BMP inhibitor LDN193189 (100 nM, PeproTech), ALK inhibitor SB431542 (10 μM, Tocris), recombinant mouse sonic hedgehog N-terminus SHH C25II (100 ng/ml, R&D), Smoothened agonist Purmorphamine (2 μM, PeproTech) and GSK3 inhibitor CHIR99021 (CHIR; 3 μM, PeproTech). KSR medium was gradually shifted to N2 medium (Neurobasal/N2 with B27 Plus Supplement; Gibco) starting on day 5 of differentiation as described previously.^18 On day 11, the medium was changed to Neurobasal/B27/L-Glut containing medium (NB/B27; Gibco) supplemented with CHIR (until day 13) and with BDNF (20 ng/ml; PeproTech), ascorbic acid (0.2 mM), GDNF (20 ng/ml; PeproTech), dibutyryl cAMP (0.5 mM; PeproTech), TGFβ3 (1 ng/ml; PeproTech), and γ-secretase inhibitor DAPT (10 μM; PeproTech) for 9 days. On Day 20 and Day 30 (midbrain DA neuron precursor stages), cells were dissociated using Accutase and replated at high cell density (8× 10^5 cells per cm^2) in dishes pre-coated with 15 μg/ml polyornithine/1 μg/ml laminin/2 μg/ml fibronectin in differentiation medium (NB/B27+BDNF, ascorbic acid, GDNF, dbcAMP, TGFβ3 and DAPT). […]"}, "[3]": {"details": "among 461 genes significantly downregulated in PD neurons"}, "[4]": {"details": "among 976 genes significantly upregulated in PD neurons"}},
  "data": [
    {"compound": "CCOC(=O)C1=C(Nc2ccccc2)S/C(=C\\c2ccc(OCCOCCOCCOCCNC(=O)CCCOc3ccc(-n4c(SCC(=O)Nc5ccc6cn[nH]c6c5)nnc4-c4ccncc4)cc3)c(O)c2)C1=O", "note": "[Syn-RiboTAC]", "values": [
      {"measurement": "inhibition at 2 µM", "setting": "[1]", "result": "~50", "unit": "%"},
      {"measurement": "cytoprotective effect relative to the binding small molecule", "setting": "SH-SY5Y cells", "result": "5 -fold"},
      {"measurement": "hexokinase 2 (HK2) expression", "setting": "[2]; PD patient-derived neurons, only gene besides SNCA", "result": "significantly decreased"},
      {"measurement": "number of PD-downregulated genes improved", "setting": "[2]; [3]", "result": 223},
      {"measurement": "percent of PD-downregulated genes improved", "setting": "[2]; [3]", "result": 48, "unit": "%"},
      {"measurement": "number of PD-upregulated genes improved (decreased)", "setting": "[2]; [4]", "result": 488},
      {"measurement": "percent of PD-upregulated genes improved (decreased)", "setting": "[2]; [4]", "result": 50, "unit": "%"}
    ]}
  ]
}
